In US7642358B2, “Substituted phenylacetic acids” (Metabolex, Inc., priority 2002, dated 2010):

Test system: C57BL/6J ob/ob mice
Assay: Anti-diabetic activity (plasma glucose lowering) in C57BL/6J ob/ob mice, oral gavage
Format: in vivo, mouse
Conditions: male C57BL/6J ob/ob mice, oral gavage once a day for 1-4 days; for minimal effective dose: Mus musculus, dose effective for plasma glucose lowering, blood taken 6 hours after each dose, read-out: Potency
Method: The anti-diabetic activities of the compounds were evaluated in the C57BL/6j ob/ob Mice model.
Male, 7-9 weeks old, C57BL/6J ob/ob mice were purchased from The Jackson Laboratory (Bar Harbor, Me., USA). Animals were housed (4-5 mice/cage) under standard laboratory conditions at 22±3° C. temperature and 50±20% relative humidity, and were maintained on a diet of Purina rodent chow and water ad libitum. Prior to treatment, blood was collected from the tail vein of each animal. Mice that had non-fasting plasma glucose levels between 250 and 500 mg/dl were used. Each treatment group consisted of 8-10 mice that were distributed so that the mean glucose levels were equivalent in each group at the start of the study. Mice were dosed orally by gavage once a day for 1-4 days with vehicle and one or more dose of test compound at a dose ranging from 5 to 125 mg/kg. Compounds were delivered in a liquid formulation containing 5% (v/v) dimethyl sulfoxide (DMSO), 1% (v/v) Tween 80® and 0.9% (w/v) methylcellulose. The gavage volume was 10 ml/kg. Blood samples were taken at 6 hours after the each dose and analyzed for plasma glucose. Food intake and body weight were measured daily. Plasma glucose concentrations were determined colorimetrically using a commercial glucose oxidase method (Sigma Chemical Co, St. Louis, Mo., USA). Significant difference between groups (comparing drug-treated to vehicle-treated) was evaluated using the Student unpaired t-test.
FIG. 6 illustrates the anti-diabetic effects of selected compounds of the present invention. Table 15 provides the relative potency of some of these selected compounds. Compounds that are effective for glucose lowering at the dose of ≧125 mg/kg are assigned a potency of +; compounds that are effective for glucose lowering at a dose of >25 mg/kg but <125 mg/kg are assigned a potency of ++; compounds that are effective for glucose lowering at a dose of ≦25 mg/kg are assigned a potency of +++. For example, a compound at 25 mg/kg that lowered the animal glucose level from 400 mg/dL (vehicle group value) to 250 mg/dL, is assigned the potency of +++.

Row | SMILES | minimal effective dose [mg/kg] | Insulin Level compared with vehicle
1 | Cc1ccc(OC(C(=O)O)c2ccc(C(F)(F)F)cc2)c(-n2nc3ccccc3n2)c1 (centres unmarked) [XI-6] | ≤ 25 | Lower
2 | O=C(O)C(Oc1ccc(Cl)cc1-c1nc2ccccc2o1)c1cccc(Cl)c1 (centres unmarked) [Example I-194] | ≤ 25 | Lower
3 | CC(Oc1ccc(C(F)(F)F)cc1-c1nc2ccccc2o1)(C(=O)O)c1ccccc1 (centres unmarked) [Ia-365] | ≤ 25 | Lower
4 | Cc1ccc(OC(C(=O)O)c2cccc(C(F)(F)F)c2)c(-n2nc3ccccc3n2)c1 (centres unmarked) [XI-2] | ≤ 25 | Lower
5 | O=C(O)[C@@H](Oc1ccc(C(F)(F)F)cc1-c1nc2ccccc2o1)c1ccccc1 [Example I-369] | ≤ 25 | Lower
6 | O=C(O)C(Oc1ccc(Cl)cc1-n1nc2ccccc2n1)c1ccc(C(F)(F)F)cc1 (centres unmarked) [XI-24] | ≤ 25 | Lower
7 | O=C(O)C(Oc1ccc(Cl)cc1-c1nc2ccccc2o1)c1ccc(Cl)cc1 (centres unmarked) [Example I-190] | ≤ 25 | Lower
8 | CC(Oc1ccc(C(F)(F)F)cc1-n1nc2ccccc2n1)(C(=O)O)c1ccc(C(F)(F)F)cc1 (centres unmarked) [XIa-51] | ≤ 25 | Lower
9 | O=C(O)C(Oc1ccccc1-c1nc2ccccc2o1)c1ccc(Cl)cc1 (centres unmarked) [Example I-1] | 25 to 125 | Lower
10 | O=C(O)C(Oc1ccc(C(F)(F)F)cc1-n1nc2ccccc2n1)c1cccc(C(F)(F)F)c1 (centres unmarked) [XI-47] | ≤ 25 | Lower
11 | O=C(O)C(Oc1ccc(C(F)(F)F)cc1-n1nc2ccccc2n1)c1ccc(C(F)(F)F)cc1 (centres unmarked) [XI-51] | ≤ 25 | Lower
12 | COc1ccc(C(Oc2ccc(Cl)cc2-c2nc3ccccc3o2)C(=O)O)cc1 (centres unmarked) [Example I-193] | ≤ 25 | Lower
13 | CC(Oc1ccc(C(F)(F)F)cc1-c1nc2ccccc2o1)(C(=O)O)c1ccccc1 (centres unmarked) [Ia-366] |  | Lower
14 | O=C(O)C(Oc1ccc(C(F)(F)F)cc1-c1nc2ccccc2o1)c1ccccc1 (centres unmarked) [Example I-92] | ≤ 25 | Lower
15 | O=C(O)C(Oc1ccc(Cl)cc1-c1nc2ccccc2o1)c1cccc(C(F)(F)F)c1 (centres unmarked) [Example I-191] | ≤ 25 | Lower
16 | O=C(O)C(Oc1ccccc1-c1nc2ccccc2o1)c1cccc(C(F)(F)F)c1 (centres unmarked) [Example I-3] | ≥ 125 | Lower
17 | Cc1ccc(OC(C)(C(=O)O)c2ccc(Cl)cc2)c(-n2nc3ccccc3n2)c1 (centres unmarked) [XIa-5] | ≤ 25 | Lower
18 | O=C(O)C(Oc1ccc(C(F)(F)F)cc1-c1nc2ccccc2o1)c1cccc(C(F)(F)F)c1 (centres unmarked) [Example I-89] | ≤ 25 | Lower
